Article PMC7249006, “Discovery of Novel Pyridazine-Based Cyclooxygenase-2 Inhibitors with a Promising Gastric Safety Profile” (Molecules, 2020)
Entries after “also recorded” stand apart in the source; their conditions may differ.

Key:
gastric mucosa = experiment: Lipid peroxidation studies (MDA content of gastric mucosa, TBA method); conditions: gastric mucosa after the ulcerogenic activity test, 10 mg/kg orally
Description: A decrease in the MDA content is a measure to assess the non-ulcerogenic effect of a compound.
The obtained mixture was extracted with a 5-mL mixture (15:1 v/v) of n-butanol and pyridine and centrifuged at 4000 rpm for 10 min. […] A standard linear curve (absorbance vs. concentration in nM) was prepared using MDA tetrabutylammonium salt. The lipid peroxidation was calculated from the standard curve. The results are expressed as nmol MDA 100 mg^−1 tissues.

human COX-2 = target: T1, human COX-2 (Homo sapiens, UniProt P35354); experiment: In vitro COX-2 inhibition assay (Cayman kit 560131, ELISA); assay type: biochemical; conditions: for SI (Selectivity index): IC50 for COX-1/IC50 for COX-2; for IC50: N = 3, Mean ± SD; for %SI: selectivity index normalized to celecoxib = 100%
T1 construct: purchased Cayman Chemicals 560131
T1 sequence (P35354 18-604): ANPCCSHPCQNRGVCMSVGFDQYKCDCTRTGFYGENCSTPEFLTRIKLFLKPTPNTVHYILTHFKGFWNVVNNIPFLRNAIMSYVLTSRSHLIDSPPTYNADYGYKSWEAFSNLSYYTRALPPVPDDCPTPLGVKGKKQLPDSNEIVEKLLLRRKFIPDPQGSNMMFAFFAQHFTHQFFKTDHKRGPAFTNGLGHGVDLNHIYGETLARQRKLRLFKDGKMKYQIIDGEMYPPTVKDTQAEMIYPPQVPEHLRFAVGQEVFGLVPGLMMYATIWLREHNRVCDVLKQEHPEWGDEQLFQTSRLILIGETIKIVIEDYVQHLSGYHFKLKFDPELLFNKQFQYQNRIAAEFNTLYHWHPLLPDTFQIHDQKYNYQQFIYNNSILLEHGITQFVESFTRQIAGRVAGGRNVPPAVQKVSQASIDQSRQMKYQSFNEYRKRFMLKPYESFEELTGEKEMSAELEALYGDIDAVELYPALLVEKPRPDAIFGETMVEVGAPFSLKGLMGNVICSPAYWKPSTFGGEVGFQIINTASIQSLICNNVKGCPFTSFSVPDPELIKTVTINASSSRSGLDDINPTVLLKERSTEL
Description: (§1) The supplier’s instructions were followed to prepare the reagents as well as to perform the experiment. Briefly, samples (20 μL), the COX-1 and COX-2 enzyme (10 μL), and heme (10 μL) were mixed with the buffer solution (160 μL), which was supplied with the kits. […] A saturated solution of stannous chloride (30 μL) was added after 2 min to halt the COX reaction. The resultant mixture was incubated at ambient temperature for 5 min. The Prostaglandin-2α (PGF2α) developed after the COX reaction was measured through ELISA. […] The plate was washed to get rid of the unbound components. […] The IC50 values of COX-1 and COX-2 were determined by the regression analysis.

[1] = target: T2, (Ovis aries, UniProt P05979); experiment: In vitro COX-1 inhibition assay (Cayman kit 560131, ELISA); assay type: biochemical, human; conditions: N = 3, Mean ± SD
T2 construct: purchased Cayman Chemicals 560131
T2 sequence (P05979 25-600): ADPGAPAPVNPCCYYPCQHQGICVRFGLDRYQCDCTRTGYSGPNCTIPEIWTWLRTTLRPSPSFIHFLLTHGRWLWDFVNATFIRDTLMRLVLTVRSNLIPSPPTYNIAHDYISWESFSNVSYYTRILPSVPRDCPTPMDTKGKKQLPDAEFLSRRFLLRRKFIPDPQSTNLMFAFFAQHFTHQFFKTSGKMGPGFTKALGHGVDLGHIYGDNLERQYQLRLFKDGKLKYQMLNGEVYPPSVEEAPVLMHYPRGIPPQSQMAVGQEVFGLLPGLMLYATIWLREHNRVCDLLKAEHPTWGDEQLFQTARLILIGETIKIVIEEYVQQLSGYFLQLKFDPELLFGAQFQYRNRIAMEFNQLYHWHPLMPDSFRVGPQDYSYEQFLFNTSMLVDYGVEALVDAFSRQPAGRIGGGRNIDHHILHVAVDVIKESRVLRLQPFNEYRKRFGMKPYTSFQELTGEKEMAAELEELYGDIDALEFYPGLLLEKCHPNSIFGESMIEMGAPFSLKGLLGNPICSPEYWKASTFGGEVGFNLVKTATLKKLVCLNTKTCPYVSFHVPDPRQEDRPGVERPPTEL
Description: as §1

gastric ulcers in rats = experiment: Gastric ulcerogenic activity; conditions: 10 mg/kg orally; for ulcerogenic effect (in words): rats; for Score: No of Gastric Ulcers / Score: Severity Lesions: rats fasted 18 h, sacrificed after 4 h, Mean ± SE
Description: A total of eight groups of rats were utilized, wherein each group comprised of six rats.
The eight groups of rats were fasted for 18 h, wherein each group consisted of 6 rats. […] Saline solution (1 mL) was given to the control group. The animals were sacrificed after 4 h to isolate their stomachs. A longitudinal cut was made along the greater curvature, and the presence of ulcers was evaluated. The counting of ulcers was marked as 0 (no ulcer) to 5 (≥ 3 ulcers) [30].

## Cc1ccc(-c2cc(C(F)(F)F)nn2-c2ccc(S(N)(=O)=O)cc2)cc1 [Celecoxib, celecoxib, reference compound]
Gastric mucosa
  MDA Content in nmol (100 mg Tissue): 6.11 ± 0.50 nmol (100 mg Tissue)

## NN=Cc1ccc(-n2nc(-c3ccccc3)ccc2=O)cc1 [Compound 4a, 2-(4-(Hydrazineylidenemethyl)phenyl)-6-phenylpyridazin-3(2H)-one]
Human COX-2
  SI (Selectivity index): 8.97
  IC50: 26.2 ± 0.5 nM
  %SI: 49.88%
other
  melting point: 235 to 236 °C
[1]
  IC50: 235 ± 0.11 nM

## O=C1CSC(NN=Cc2ccc(-n3nc(-c4ccccc4)ccc3=O)cc2)=N1 [Compound 6a, 2-(2-(4-(6-Oxo-3-phenylpyridazin-1(6H)-yl)benzylidene)hydrazineyl)thiazol-4(5H)-one]
Human COX-2
  SI (Selectivity index): 10.35
  IC50: 25.1 ± 0.15 nM
  %SI: 57.56%
other
  melting point: 250 to 252 °C
[1]
  IC50: 260 ± 0.22 nM

## CC1SC(NN=Cc2ccc(-n3nc(-c4ccccc4)ccc3=O)cc2)=NC1=O (stereo not drawn) [Compound 6b, 5-Methyl-2-(2-(4-(6-oxo-3-phenylpyridazin-1(6H)-yl)benzylidene)hydrazineyl)thiazol-4(5H)-one]
Human COX-2
  SI (Selectivity index): 12.30
  IC50: 22.75 ± 0.1 nM
  %SI: 68.40%
other
  melting point: 285 to 286 °C
[1]
  IC50: 280 ± 0.5 nM

## CCOC(=O)c1sc(N/N=C/c2ccc(-n3nc(-c4ccccc4)ccc3=O)cc2)nc1C [Compound 8, Ethyl 4-methyl-2-(2-(4-(6-oxo-3-phenylpyridazin-1(6H)-yl)benzylidene)hydrazineyl) thiazole-5-carboxylate]
Human COX-2
  SI (Selectivity index): 10.33
  IC50: 24.18 ± 0.14 nM
  %SI: 57.45%
other
  melting point: 245 to 246 °C
[1]
  IC50: 250 ± 0.12 nM

## O=c1ccc(-c2ccccc2)nn1-c1ccc(C=NNc2nc(-c3ccccc3)cs2)cc1 [Compound 9a, 6-Phenyl-2-(4-((2-(4-phenylthiazol-2-yl)hydrazinylidene)methyl)phenyl)pyridazin-3(2H)-one]
Human COX-2
  IC50: 15.5 ± 0.55 nM
other
  melting point: 280 to 281 °C
Gastric ulcers in rats
  ulcerogenic effect (in words): No ulcerogenic effects; also recorded: did not produce any ulcerogenic impact; also recorded: devoid of any ulcerogenic effect
  Score: No of Gastric Ulcers: 0
  Score: Severity Lesions: 0
Gastric mucosa
  MDA Content in nmol (100 mg Tissue): 3.05 ± 0.12 nmol (100 mg Tissue)
[1]
  IC50: 330 ± 0.28 nM

## O=c1ccc(-c2ccccc2)nn1-c1ccc(C=NNc2nc(-c3ccc(Br)cc3)cs2)cc1 [Compound 9b, 2-(4-((2-(4-(4-Bromophenyl)thiazol-2-yl)hydrazineylidene)methyl)phenyl)-6-phenylpyridazin-3(2H)-one]
Human COX-2
  IC50: 17.5 ± 0.6 nM
other
  melting point: 261 to 262 °C
Gastric ulcers in rats
  ulcerogenic effect (in words): insignificant ulcerogenic effects
  Score: No of Gastric Ulcers: 0.33 ± 0.38
  Score: Severity Lesions: 0.26 ± 0.16
Gastric mucosa
  MDA Content in nmol (100 mg Tissue): 3.89 ± 0.50 nmol (100 mg Tissue)
[1]
  IC50: 275 ± 0.42 nM

## COC(=O)C=C1SC(=NN=Cc2ccc(-n3nc(-c4ccccc4)ccc3=O)cc2)NC1=O [Compound 10, Methyl2-(4-oxo-2-((4-(6-oxo-3-phenylpyridazin-1(6H)-yl)benzylidene)hydrazineylidene) -thiazolidin-5-ylidene)acetate]
Human COX-2
  SI (Selectivity index): 12.89
  IC50: 22.1 ± 0.55 nM
  %SI: 71.69%
[1]
  IC50: 285 ± 0.15 nM

## CN(C)C=C1SC(NN=Cc2ccc(-n3nc(-c4ccccc4)ccc3=O)cc2)=NC1=O [Compound 11, 5-((dimethylamino)methylene)-2-(2-(4-(6-oxo-3-phenylpyridazin-1(6H)-yl)benzylidene) hydrazineyl) thiazol-4(5H)-one]
Human COX-2
  SI (Selectivity index): 10.75
  IC50: 25.11 ± 0.11 nM
  %SI: 59.78%
[1]
  IC50: 270 ± 0.24 nM

## O=C1N=C(NN=Cc2ccc(-n3nc(-c4ccccc4)ccc3=O)cc2)SC1=C1C(=O)Nc2ccccc21 [Compound 12, 2-(2-(4-(6-oxo-3-phenylpyridazin-1(6H)-yl)benzylidene)hydrazineyl)-5-(2-oxoindolin-3-ylidene) thiazol-4(5H)-one]
Human COX-2
  IC50: 17.1 ± 0.19 nM
Gastric ulcers in rats
  ulcerogenic effect (in words): No ulcerogenic effects; also recorded: did not produce any ulcerogenic impact; also recorded: devoid of any ulcerogenic effect
  Score: No of Gastric Ulcers: 0
  Score: Severity Lesions: 0
Gastric mucosa
  MDA Content in nmol (100 mg Tissue): 2.95 ± 0.44 nmol (100 mg Tissue)
[1]
  IC50: 295 ± 0.28 nM

## O=C1N=C(N/N=C/c2ccc(-n3nc(-c4ccccc4)ccc3=O)cc2)S/C1=C\c1ccc(Cl)cc1 [Compound 16a, 5-(4-Chlorobenzylidene)-2-(2-(4-(6-oxo-3-phenylpyridazin-1(6H)-yl)benzylidene)-hydra-zinyl)thiazol-4(5H)-one]
Human COX-2
  SI (Selectivity index): 12.40
  IC50: 22.2 ± 0.44 nM
  %SI: 68.96%
other
  melting point: 297 to 298 °C
[1]
  IC50: 275 ± 0.1 nM

## COc1ccc(/C=C2\SC(N/N=C/c3ccc(-n4nc(-c5ccccc5)ccc4=O)cc3)=NC2=O)cc1 [Compound 16b, 5-(4-Methoxybenzylidene)-2-(2-(4-(6-oxo-3-phenylpyridazin-1(6H)-yl)benzylidene)hydra-zineyl)thiazol-4(5H)-one]
Human COX-2
  IC50: 16.9 ± 0.16 nM
other
  melting point: > 300 °C
Gastric ulcers in rats
  ulcerogenic effect (in words): insignificant ulcerogenic effects
  Score: No of Gastric Ulcers: 0.12 ± 0.30
  Score: Severity Lesions: 0.18 ± 0.22
Gastric mucosa
  MDA Content in nmol (100 mg Tissue): 3.45 ± 0.28 nmol (100 mg Tissue)
[1]
  IC50: 315 ± 0.33 nM

## O=C1CSC(=NN=Cc2ccc(-n3nc(-c4ccccc4)ccc3=O)cc2)N1c1ccccc1 [Compound 17, 2-((4-(6-oxo-3-phenylpyridazin-1(6H)-yl)benzylidene)hydrazineylidene)-3-phenyl thiazolidin-4-one]
Human COX-2
  IC50: 17.7 ± 0.18 nM
Gastric ulcers in rats
  ulcerogenic effect (in words): insignificant ulcerogenic effects
  Score: No of Gastric Ulcers: 0.42 ± 0.10
  Score: Severity Lesions: 0.20 ± 0.50
Gastric mucosa
  MDA Content in nmol (100 mg Tissue): 4.11 ± 0.18 nmol (100 mg Tissue)
[1]
  IC50: 285 ± 0.16 nM

## COC(=O)C=C1SC(=NN=Cc2ccc(-n3nc(-c4ccccc4)ccc3=O)cc2)N(c2ccccc2)C1=O [Compound 18, Methyl2-(4-oxo-2-((4-(6-oxo-3-phenylpyridazin-1(6H)-yl)benzylidene)hydrazinylidene) -3-phenylthiazolidin-5-ylidene)acetate]
Human COX-2
  SI (Selectivity index): 11.01
  IC50: 23.1 ± 0.5 nM
  %SI: 61.23%
[1]
  IC50: 255 ± 0.2 nM

## COc1ccc2c(c1)c(CC(=O)O)c(C)n2C(=O)c1ccc(Cl)cc1 [Indomethacin, indomethacin, reference compound]
Gastric mucosa
  MDA Content in nmol (100 mg Tissue): 8.90 ± 0.18 nmol (100 mg Tissue)
